Reference: BindingDB's records for patent US20240034743 (Qilu Pharmaceutical, 2024)
pIC50: −log10 of the molar value.

What was measured:
[1] = target: Epidermal growth factor receptor [L858R,T790M,C797S] (Homo sapiens, UniProt P00533, C797S/L858R/T790M); assay: Not found
From the text: Not found

[2] = target: Epidermal growth factor receptor (Homo sapiens, UniProt P00533); assay: Not found
From the text: Not found

Sequence of Epidermal growth factor receptor (P00533 whole entry): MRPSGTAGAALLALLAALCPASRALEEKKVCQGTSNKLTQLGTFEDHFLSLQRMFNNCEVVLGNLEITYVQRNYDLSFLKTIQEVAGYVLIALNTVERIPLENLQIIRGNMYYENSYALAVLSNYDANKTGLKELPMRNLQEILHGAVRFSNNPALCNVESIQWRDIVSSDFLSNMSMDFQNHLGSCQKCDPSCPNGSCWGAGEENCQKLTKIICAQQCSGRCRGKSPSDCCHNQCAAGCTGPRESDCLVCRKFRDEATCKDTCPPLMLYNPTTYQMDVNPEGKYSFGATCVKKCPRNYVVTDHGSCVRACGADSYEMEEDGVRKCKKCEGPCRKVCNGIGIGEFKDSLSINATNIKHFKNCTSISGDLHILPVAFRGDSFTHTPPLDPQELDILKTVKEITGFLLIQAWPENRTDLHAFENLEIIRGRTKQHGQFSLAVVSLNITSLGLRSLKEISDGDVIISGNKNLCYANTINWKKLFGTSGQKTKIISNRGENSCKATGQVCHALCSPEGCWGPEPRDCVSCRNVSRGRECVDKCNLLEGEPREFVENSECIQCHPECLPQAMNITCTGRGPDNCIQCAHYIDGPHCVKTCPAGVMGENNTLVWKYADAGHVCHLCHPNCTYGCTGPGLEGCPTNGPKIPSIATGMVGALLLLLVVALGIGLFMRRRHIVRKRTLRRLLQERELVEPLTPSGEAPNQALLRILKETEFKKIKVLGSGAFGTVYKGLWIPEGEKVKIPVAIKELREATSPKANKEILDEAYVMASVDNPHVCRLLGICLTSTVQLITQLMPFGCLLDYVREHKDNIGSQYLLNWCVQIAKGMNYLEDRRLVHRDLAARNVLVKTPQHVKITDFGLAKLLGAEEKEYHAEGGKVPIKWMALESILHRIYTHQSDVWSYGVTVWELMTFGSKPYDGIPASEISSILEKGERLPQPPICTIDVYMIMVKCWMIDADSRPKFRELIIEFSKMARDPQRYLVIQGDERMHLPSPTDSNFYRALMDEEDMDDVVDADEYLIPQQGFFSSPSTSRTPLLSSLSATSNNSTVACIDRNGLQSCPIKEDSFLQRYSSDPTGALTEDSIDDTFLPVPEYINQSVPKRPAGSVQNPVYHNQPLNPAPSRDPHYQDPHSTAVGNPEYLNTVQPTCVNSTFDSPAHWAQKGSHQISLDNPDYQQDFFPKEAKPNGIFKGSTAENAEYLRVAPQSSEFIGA
Sequence of Epidermal growth factor receptor [L858R,T790M,C797S] (P00533 25-1210 T790M/C797S/L858R limits assumed): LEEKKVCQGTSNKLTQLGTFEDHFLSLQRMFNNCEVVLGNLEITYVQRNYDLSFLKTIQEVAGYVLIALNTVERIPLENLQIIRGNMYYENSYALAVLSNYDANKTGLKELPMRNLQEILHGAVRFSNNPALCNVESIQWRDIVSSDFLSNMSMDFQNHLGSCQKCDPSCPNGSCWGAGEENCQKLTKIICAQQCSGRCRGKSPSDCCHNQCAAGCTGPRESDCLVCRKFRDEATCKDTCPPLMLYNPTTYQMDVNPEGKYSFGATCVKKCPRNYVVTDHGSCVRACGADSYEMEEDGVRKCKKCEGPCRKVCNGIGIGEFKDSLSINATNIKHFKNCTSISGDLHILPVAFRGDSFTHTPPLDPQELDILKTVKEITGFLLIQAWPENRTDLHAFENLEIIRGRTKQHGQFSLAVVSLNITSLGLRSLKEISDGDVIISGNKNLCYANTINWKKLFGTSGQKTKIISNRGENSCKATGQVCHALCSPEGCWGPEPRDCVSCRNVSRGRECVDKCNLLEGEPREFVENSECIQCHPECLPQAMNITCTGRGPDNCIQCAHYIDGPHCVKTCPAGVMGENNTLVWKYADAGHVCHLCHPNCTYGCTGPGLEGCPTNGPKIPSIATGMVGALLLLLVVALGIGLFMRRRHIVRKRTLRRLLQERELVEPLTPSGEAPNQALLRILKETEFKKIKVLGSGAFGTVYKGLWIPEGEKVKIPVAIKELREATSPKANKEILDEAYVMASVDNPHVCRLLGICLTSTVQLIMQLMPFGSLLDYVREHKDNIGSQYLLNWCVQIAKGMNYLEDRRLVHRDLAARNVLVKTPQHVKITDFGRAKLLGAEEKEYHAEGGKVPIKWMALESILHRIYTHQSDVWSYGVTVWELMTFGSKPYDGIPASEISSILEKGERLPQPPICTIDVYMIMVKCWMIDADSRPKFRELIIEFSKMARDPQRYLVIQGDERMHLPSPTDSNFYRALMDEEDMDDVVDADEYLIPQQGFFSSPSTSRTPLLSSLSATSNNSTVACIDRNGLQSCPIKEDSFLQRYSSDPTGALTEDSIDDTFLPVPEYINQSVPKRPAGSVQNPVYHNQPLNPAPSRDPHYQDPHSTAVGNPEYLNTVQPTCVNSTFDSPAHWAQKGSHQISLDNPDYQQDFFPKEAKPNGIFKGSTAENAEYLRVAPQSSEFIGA

Structure (SMILES)	pIC50 [1]	pIC50 [2]
COc1cc2c(cc1Nc1ncc(Br)c(Nc3ccc4nccnc4c3P(C)(C)=O)n1)-c1cnn(C)c1CCN2C [US20240034743, Compound 1]	> 9.00	–
COc1cc2c(cc1Nc1ncc(Br)c(Nc3ccc4nccnc4c3P(C)(C)=O)n1)-c1cnn(C)c1CN(C)C2=O [US20240034743, Compound 9]	> 9.00	–
COc1cc2c(cc1Nc1ncc(Cl)c(Nc3ccc4nccnc4c3P(C)(C)=O)n1)-c1cnn(C)c1CCN2C [US20240034743, Compound 13]	–	> 9.00
COc1cc2c(cc1Nc1ncc(Br)c(Nc3ccc4nccnc4c3P(C)(C)=O)n1)-c1cnn(C)c1CCN2C(C)=O [US20240034743, Compound 15]	> 9.00	–
COc1cc2c(cc1Nc1ncc(C(F)(F)F)c(Nc3ccccc3P(C)(C)=O)n1)-c1cnn(C)c1CCN2C [US20240034743, Compound 26]	> 9.00	–
COc1cc2c(cc1Nc1ncc(Br)c(Nc3ccccc3P(C)(C)=O)n1)-c1ccnn1CCN2C [US20240034743, Compound 29]	> 9.00	–
COc1cc2c(cc1Nc1ncc(Br)c(Nc3ccccc3NS(C)(=O)=O)n1)-c1cnn(C)c1CCN2C [US20240034743, Compound 32]	> 9.00	–
COc1cc2c(cc1Nc1ncc(Br)c(Nc3ccccc3P(C)(C)=O)n1)-c1cnn(C)c1CCC2 [US20240034743, Compound 38]	> 9.00	–
CCn1ncc2c1CCN(C)c1cc(OC)c(Nc3ncc(Br)c(Nc4ccccc4P(C)(C)=O)n3)cc1-2 [US20240034743, Compound 39]	> 9.00	–
COc1cc2c(cc1Nc1ncc(Br)c(Nc3ccccc3P(C)(C)=O)n1)-c1cnn(C)c1CC=C2 [US20240034743, Compound 40]	> 9.00	–
COc1cc2c(cc1Nc1ncc(Br)c(Nc3ccccc3P(C)(C)=O)n1)-c1cnn(C)c1COC2 [US20240034743, Compound 46]	> 9.00	–
COc1cc2c(cc1Nc1ncc(Br)c(Nc3ccccc3P(C)(C)=O)n1)-c1cnnn1CCN2C [US20240034743, Compound 48]	> 9.00	–
COc1cc2c(cc1Nc1ncc(Br)c(Nc3ccccc3P(C)(C)=O)n1)-c1cnn(C)c1CNC2 [US20240034743, Compound 49]	> 9.00	–
COc1cc2c(cc1Nc1ncc(Br)c(Nc3ccccc3P(C)(C)=O)n1)-c1cnn(C)c1CCC2N (stereo not given) [US20240034743, Compound 50]	> 9.00	–
COc1nc2c(cc1Nc1ncc(Br)c(Nc3ccccc3P(C)(C)=O)n1)-c1cnn(C)c1CCN2 [US20240034743, Compound 51]	> 9.00	–
COc1cc2c(cc1Nc1ncc(Br)c(Nc3ccccc3P(C)(C)=O)n1)-c1cnc(C)n1CCN2C [US20240034743, Compound 55]	> 9.00	–
COc1cc2c(cc1Nc1nc(Nc3ccccc3P(C)(C)=O)c3sccc3n1)-c1cnn(C)c1CCN2C [US20240034743, Compound 58]	> 9.00	–
COc1cc2c(cc1Nc1ncc(Br)c(Nc3ccccc3P(C)(C)=O)n1)-c1cnn(C)c1CCN2C1CN(C)C1 [US20240034743, Compound 59]	–	> 9.00
COc1cc2c(cc1Nc1ncc(Br)c(Nc3ccc4nccnc4c3P(C)(C)=O)n1)-c1cnn(C)c1CCN2C1CCN(C)CC1 [US20240034743, Compound 62]	> 9.00	–
COc1cc2c(cc1Nc1ncc(Br)c(Nc3ccc4nccnc4c3P(C)(C)=O)n1)-c1cnn(C)c1CCN2C1CN(C(C)C)C1 [US20240034743, Compound 63]	–	> 9.00

Structure (SMILES)	pIC50 [1]	pIC50 [2]
COc1cc2c(cc1Nc1ncc(Br)c(Nc3ccccc3P(C)(C)=O)n1)-c1cnn(C)c1CCN2C1COC1 [US20240034743, Compound 64]	> 9.00	–
COc1cc2c(cc1Nc1ncc(Br)c(Nc3ccccc3P(C)(C)=O)n1)-c1cnn(C)c1CCN2C1CN(CCF)C1 [US20240034743, Compound 69]	> 9.00	–
COc1cc2c(cc1Nc1ncc(Br)c(Nc3ccc4nccnc4c3P(C)(C)=O)n1)-c1cnn(C)c1CCN2C1CN(CC2CC2)C1 [US20240034743, Compound 70]	–	> 9.00
COc1cc2c(cc1Nc1ncc(Br)c(Nc3ccccc3P(C)(C)=O)n1)-c1cnn(C)c1CCN2CC(F)(F)F [US20240034743, Compound 73]	> 9.00	–
COc1cc2c(cc1Nc1ncc(Br)c(Nc3ccc4nccnc4c3P(C)(C)=O)n1)-c1cnn(C)c1CCN2C1CC1 [US20240034743, Compound 74]	–	> 9.00
COc1cc2c(cc1Nc1ncc(Br)c(Nc3ccc4nccnc4c3P(C)(C)=S)n1)-c1cnn(C)c1CCN2C1CCN(C)CC1 [US20240034743, Compound 76]	> 9.00	–
COc1nc2c(cc1Nc1ncc(Br)c(Nc3ccccc3P(C)(C)=O)n1)-c1cnn(C)c1CCN2C [US20240034743, Compound 79]	> 9.00	–
COc1cc2c(cc1Nc1ncc(Br)c(Nc3ccc4nccnc4c3P(C)(C)=O)n1)-c1cnn(C)c1CCN2C1CCCN(C)C1 (stereo not given) [US20240034743, Compound 84]	> 9.00	–
COc1cc2c(cc1Nc1ncc(C)c(Nc3ccc4nccnc4c3P(C)(C)=O)n1)-c1cnn(C)c1CCN2C(C)C [US20240034743, Compound 85]	–	> 9.00
COc1cc2c(cc1Nc1ncc(Br)c(Nc3ccc4nccnc4c3P(C)(C)=O)n1)-c1cnn(C)c1CCN2C1CCOCC1 [US20240034743, Compound 88]	> 9.00	–
COc1cc2c(cc1Nc1ncc(Br)c(Nc3ccc4nccnc4c3P(C)(C)=O)n1)-c1cnn(C)c1CCN2C1CC2(C1)CN(C)C2 [US20240034743, Compound 89]	–	> 9.00
COc1cc2c(cc1Nc1ncc(Br)c(Nc3ccc4nccnc4c3P(C)(C)=O)n1)-c1cnn(C)c1CCN2C1CC2(C1)CN(C(C)C)C2 [US20240034743, Compound 90]	> 9.00	–
COc1cc2c(cc1Nc1ncc(Br)c(Nc3ccc4nccnc4c3P(C)(C)=S)n1)-c1cnn(C)c1CCN2C1CC2(C1)CN(C)C2 [US20240034743, Compound 93]	–	> 9.00
COc1cc2c(cc1Nc1ncc(Br)c(Nc3ccc4nccnc4c3NS(C)(=O)=O)n1)-c1cnn(C)c1CCN2 [US20240034743, Compound 114]	–	> 9.00
COc1cc2c(cc1Nc1ncc(Br)c(Nc3ccc4nccnc4c3C(N)=O)n1)-c1cnn(C)c1CCN2C(C)C [US20240034743, Compound 115]	–	< 6.00
COc1cc2c(cc1Nc1ncc(Br)c(Nc3ccccc3N(C(C)C)S(C)(=O)=O)n1)-c1cnn(C)c1CCN2C(C)C [US20240034743, Compound 124]	< 6.00	–
CNS(=O)(=O)c1ccccc1Nc1nc(Nc2cc3c(cc2OC)N(C(C)C)CCc2c-3cnn2C)ncc1Br [US20240034743, Compound 127]	< 6.00	–
COc1cc2c(cc1Nc1ncc(Br)c(Nc3cccc4c3NS(=O)(=O)C4)n1)-c1cnn(C)c1CCN2C(C)C [US20240034743, Compound 132]	> 9.00	–
COc1cc2c(cc1Nc1ncc(Br)c(Nc3ccc4nccnc4c3NS(C)(=O)=O)n1)-c1cnn(C)c1CCN2CC(C)C [US20240034743, Compound 133]	–	> 9.00
CCN1CCc2c(cnn2C)-c2cc(Nc3ncc(Br)c(Nc4ccc5nccnc5c4NS(C)(=O)=O)n3)c(OC)cc21 [US20240034743, Compound 139]	–	> 9.00
